Test results reported in patent US12018016B2, “Aryl sulfonyl (hydroxy) piperidines as CCR6 inhibitors” (CHEMOCENTRYX, INC., priority 2021, dated 2024).
pIC50: −log10 of the molar value.

Biological target: T1, human CCR6 (Homo sapiens, UniProt P51684)
T1 construct: expressed in transfected cells; host or cells: Ba/F3 cells (mouse pro-B line)
T1 sequence (P51684 1-374): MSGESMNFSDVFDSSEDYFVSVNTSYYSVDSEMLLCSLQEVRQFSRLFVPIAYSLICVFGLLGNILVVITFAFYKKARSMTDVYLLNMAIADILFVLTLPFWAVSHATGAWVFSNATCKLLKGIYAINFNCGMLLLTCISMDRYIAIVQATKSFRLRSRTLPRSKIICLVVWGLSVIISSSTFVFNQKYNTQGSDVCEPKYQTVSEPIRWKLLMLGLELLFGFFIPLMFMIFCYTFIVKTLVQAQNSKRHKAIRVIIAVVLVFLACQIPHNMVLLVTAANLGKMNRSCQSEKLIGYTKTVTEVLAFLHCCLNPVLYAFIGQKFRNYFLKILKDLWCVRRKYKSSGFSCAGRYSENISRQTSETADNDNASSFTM
Test: Migration assay (chemotaxis, ChemoTX)
Type: cell-based
Conditions: hCCR6-transfected Ba/F3 cells in human serum, migration to recombinant human CCL20 10 nM, 37° C. 45 minutes; read-out: Potency (IC50 value in the migration assay)
Summary of the method: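 Ba/F3 cells transfected with human CCR6 and butyrate-primed for 24 h were suspended at 4 million/ml in human serum with compound, serially diluted from a 1 μM final top concentration. Cells migrated through a 5-μm polycarbonate membrane toward 10 nM human CCL20 for 45 min at 37 °C. Migrated cells were quantified by CyQUANT fluorescence.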

| pIC50 | SMILES |
| --- | --- |
| > 9.00 | Nc1n[nH]c2ncc(-c3ccc(S(=O)(=O)N4CC[C@@H](Nc5ccc(C(F)(F)F)cn5)[C@@H](O)C4)cc3)cc12 [Example 38, (3S,4R)-1-((4-(3-amino-1H-pyrazolo[3,4-b]pyridin-5-yl)phenyl)sulfonyl)-4-((5-(trifluoromethyl)pyridin-2-yl)amino)piperidin-3-ol] |
| 8.00 to 9.00 | O=S(=O)(c1ccc(-c2ccc(N3CCNCC3)nc2)cc1)N1CC[C@@H](Nc2ccc(C(F)(F)F)cn2)[C@@H](O)C1 [Compound 114] |
| > 9.00 | N[C@H]1C[C@@H](Nc2ccc(-c3ccc(S(=O)(=O)N4CC[C@@H](Nc5ccc(C(F)(F)F)cn5)[C@@H](O)C4)cc3)cn2)C1 [Compound 97] |
| > 9.00 | O=C1Cc2ccc(-c3ccc(S(=O)(=O)N4CC[C@@H](Nc5ccc(C(F)(F)F)cn5)[C@@H](O)C4)cc3)cc2N1 [Example 9, 6-(4-(((3S,4R)-3-hydroxy-4-((5-(trifluoromethyl)pyridin-2-yl)amino)piperidin-1-yl)sulfonyl)phenyl)indolin-2-one] |
| > 9.00 | O=C1CCc2cc(-c3ccc(S(=O)(=O)N4CC[C@@H](Nc5ccc(C(F)(F)F)cn5)[C@@H](O)C4)cc3)ccc2N1 [Example 2, 6-(4-(((3S,4R)-3-hydroxy-4-((5-(trifluoromethyl)pyridin-2-yl)amino)piperidin-1-yl)sulfonyl)phenyl)-3,4-dihydroquinolin-2(1H)-one] |
| 8.00 to 9.00 | O=S(=O)(c1ccc(-c2ccc(N3CCCCC3)nc2)cc1)N1CC[C@@H](Nc2ccc(C(F)(F)F)cn2)[C@@H](O)C1 [Compound 109] |
| 6.00 to 8.00 | O=C(O)c1cc(-c2ccc(S(=O)(=O)N3CC[C@@H](Nc4ccc(C(F)(F)F)cn4)[C@@H](O)C3)cc2)ccn1 [Compound 208] |
| > 9.00 | Cc1nnc(-c2cc(-c3ccc(S(=O)(=O)N4CC[C@@H](Nc5ncc(C(F)(F)F)cc5C)[C@@H](O)C4)cc3)ccn2)o1 [Compound 84, (3S,4R)-1-[4-[2-(5-methyl-1,3,4-oxadiazol-2-yl)-4-pyridyl]phenyl]sulfonyl-4-[[3-methyl-5-(trifluoromethyl)-2-pyridyl]amino]piperidin-3-ol] |
| > 9.00 | COc1cc(-c2ccc(S(=O)(=O)N3CC[C@@H](Nc4ccc(C(F)(F)F)cn4)[C@@H](O)C3)cc2)cc2c(C#N)n[nH]c12 [Compound 122] |
| 8.00 to 9.00 | N#Cc1c[nH]c2ncc(-c3ccc(S(=O)(=O)N4CC[C@H](Nc5ccc(C(F)(F)F)cn5)[C@H](O)C4)cc3)cc12 [Example 32, 5-(4-(((3R,4S)-3-hydroxy-4-((5-(trifluoromethyl)pyridin-2-yl)amino)piperidin-1-yl)sulfonyl)phenyl)-1H-pyrrolo[2,3-b]pyridine-3-carbonitrile] |
| > 9.00 | Nc1nc2ccc(-c3ccc(S(=O)(=O)N4CC[C@@H](Nc5ccc(C(F)(F)F)cn5)[C@@H](O)C4)cc3)cc2c(=O)[nH]1 [Example 30, 2-amino-6-(4-(((3S,4R)-3-hydroxy-4-((5-(trifluoromethyl)pyridin-2-yl)amino)piperidin-1-yl)sulfonyl)phenyl)quinazolin-4(3H)-one] |
| > 9.00 | O=S(=O)(c1ccc(-c2ccncc2)cc1)N1CC[C@@H](Nc2ccc(C(F)(F)F)cn2)[C@@H](O)C1 [Compound 161] |
| > 9.00 | Cc1ncc(C(N)=O)cc1-c1ccc(S(=O)(=O)N2CC[C@@H](Nc3ccc(C(F)(F)F)cn3)[C@@H](O)C2)cc1 [Compound 183] |
| > 9.00 | Cc1c(-c2ccc(S(=O)(=O)N3CC[C@@H](Nc4ccc(C(F)(F)F)cn4)[C@@H](O)C3)cc2)ccc2[nH]ncc12 [Example 26, (3S,4R)-1-((4-(4-methyl-1H-indazol-5-yl)phenyl)sulfonyl)-4-((5-(trifluoromethyl)pyridin-2-yl)amino)piperidin-3-ol] |
| > 9.00 | O=S(=O)(c1ccc(-c2ccnc(N3CC(O)C3)c2)cc1)N1CC[C@@H](Nc2ccc(C(F)(F)F)cn2)[C@@H](O)C1 [Compound 137] |
| > 9.00 | Cn1c(-c2ccc(S(=O)(=O)N3CC[C@@H](Nc4ccc(C(F)(F)F)cn4)[C@@H](O)C3)cc2)cnc1C(N)=O [Compound 71, 5-(4-(((3S,4R)-3-hydroxy-4-((5-(trifluoromethyl)pyridin-2-yl)amino)piperidin-1-yl)sulfonyl)phenyl)-1-methyl-1H-imidazole-2-carboxamide] |
| 8.00 to 9.00 | O=S(=O)(c1ccc(-c2ccncc2CO)cc1)N1CC[C@@H](Nc2ccc(C(F)(F)F)cn2)[C@@H](O)C1 [Compound 153] |
| > 9.00 | Cc1cc(-c2ccc(S(=O)(=O)N3CC[C@@H](Nc4ccc(C(F)(F)F)cn4)[C@@H](O)C3)cc2)cc2cnn(C)c12 [Compound 123] |
| > 9.00 | CNC(=O)c1cc(-c2ccc(S(=O)(=O)N3CC[C@@H](Nc4ccc(C(F)(F)F)cn4)[C@@H](O)C3)cc2)ccn1 [Example 50, 4-(4-(((3S,4R)-3-hydroxy-4-((5-(trifluoromethyl)pyridin-2-yl)amino)piperidin-1-yl)sulfonyl)phenyl)-N-methylpicolinamide] |

| pIC50 | SMILES |
| --- | --- |
| > 9.00 | Cc1cncc(C)c1-c1ccc(S(=O)(=O)N2CC[C@@H](Nc3ccc(C(F)(F)F)cn3)[C@@H](O)C2)cc1 [Compound 185] |
| > 9.00 | Cc1cc2[nH]nc(C#N)c2cc1-c1ccc(S(=O)(=O)N2CC[C@@H](Nc3ccc(C(F)(F)F)cn3)[C@@H](O)C2)cc1 [Example 36, 5-(4-(((3S,4R)-3-hydroxy-4-((5-(trifluoromethyl)pyridin-2-yl)amino)piperidin-1-yl)sulfonyl)phenyl)-6-methyl-1H-indazole-3-carbonitrile] |
| > 9.00 | Cc1c(-c2ccc(S(=O)(=O)N3CC[C@@H](Nc4ccc(C(F)(F)F)cn4)[C@@H](O)C3)cc2)cnc(N)c1C [Compound 148] |
| > 9.00 | O=S(=O)(c1ccc(-c2ccc(N3CC4(COC4)C3)nc2)cc1)N1CC[C@@H](Nc2ccc(C(F)(F)F)cn2)[C@@H](O)C1 [Compound 93] |
| 8.00 to 9.00 | O=C1C[C@H](Nc2cc(-c3ccc(S(=O)(=O)N4CC[C@@H](Nc5ccc(C(F)(F)F)cn5)[C@@H](O)C4)cc3)ccn2)CN1 [Compound 127] |
| > 9.00 | O=S(=O)(c1ccc(-c2cnc3[nH]ccc3c2C(F)(F)F)cc1)N1CC[C@@H](Nc2ccc(C(F)(F)F)cn2)[C@@H](O)C1 [Example 22, (3S,4R)-1-((4-(4-(trifluoromethyl)-1H-pyrrolo[2,3-b]pyridin-5-yl)phenyl)sulfonyl)-4-((5-(trifluoromethyl)pyridin-2-yl)amino)piperidin-3-ol] |
| > 9.00 | NC(=O)c1cc(-c2ccc(S(=O)(=O)N3CC[C@@H](Nc4ccc(C(F)(F)F)cn4)[C@@H](O)C3)cc2)cc(N)n1 [Compound 202] |
| > 9.00 | O=S(=O)(c1ccc(-c2ccnc(N3CCCC3)c2)cc1)N1CC[C@@H](Nc2ccc(C(F)(F)F)cn2)[C@@H](O)C1 [Compound 90, (3S,4R)-1-((4-(2-(pyrrolidin-1-yl)pyridin-4-yl)phenyl)sulfonyl)-4-((5-(trifluoromethyl)pyridin-2-yl)amino)piperidin-3-ol] |
| 8.00 to 9.00 | O=S(=O)(c1ccc(-c2ccnc(N3CCNCC3)c2)cc1)N1CC[C@@H](Nc2ccc(C(F)(F)F)cn2)[C@@H](O)C1 [Compound 158] |
| > 9.00 | O=S(=O)(c1ccc(-c2cccnc2)cc1)N1CC[C@@H](Nc2ccc(C(F)(F)F)cn2)[C@@H](O)C1 [Compound 162] |
| > 9.00 | Cc1c(-c2ccc(S(=O)(=O)N3CC[C@@H](Nc4ccc(C(F)(F)F)cn4)[C@@H](O)C3)cc2)c(C)[n+]([O-])c2[nH]ccc12 [Example 62, 5-(4-(((3S,4R)-3-hydroxy-4-((5-(trifluoromethyl)pyridin-2-yl)amino)piperidin-1-yl)sulfonyl)phenyl)-4,6-dimethyl-1H-pyrrolo[2,3-b]pyridine 7-oxide] |
| > 9.00 | Nc1n[nH]c2cc(-c3ccc(S(=O)(=O)N4CC[C@@H](Nc5ccc(C(F)(F)F)cn5)[C@@H](O)C4)cc3)ccc12 [Example 55, (3S,4R)-1-((4-(3-amino-1H-indazol-6-yl)phenyl)sulfonyl)-4-((5-(trifluoromethyl)pyridin-2-yl)amino)piperidin-3-ol] |
| > 9.00 | NC(=O)c1cc(-c2ccc(S(=O)(=O)N3CC[C@@H](Nc4ccc(C(F)(F)F)cn4)[C@@H](O)C3)cc2)cnc1N [Example 53, 2-Amino-5-(4-(((3S,4R)-3-hydroxy-4-((5-(trifluoromethyl)pyridin-2-yl)amino)piperidin-1-yl)sulfonyl)phenyl)nicotinamide] |
| > 9.00 | O=S(=O)(c1ccc(-c2ccnc(N3CCOCC3)c2)cc1)N1CC[C@@H](Nc2ccc(C(F)(F)F)cn2)[C@@H](O)C1 [Compound 146] |
| > 9.00 | O=S(=O)(c1ccc(-c2cnc3[nH]ccc3c2F)cc1)N1CC[C@@H](Nc2ccc(C(F)(F)F)cn2)[C@@H](O)C1 [Compound 119] |
| > 9.00 | COc1cc(-c2ccc(S(=O)(=O)N3CC[C@@H](Nc4ccc(C(F)(F)F)cn4)[C@@H](O)C3)cc2)cc(-c2nnc(C)o2)n1 [Compound 214] |
| > 9.00 | O=C1CNCCN1c1ccc(-c2ccc(S(=O)(=O)N3CC[C@@H](Nc4ccc(C(F)(F)F)cn4)[C@@H](O)C3)cc2)cn1 [Compound 179] |
| > 9.00 | O=S(=O)(c1ccc(-c2ccc(N3CCOCC3)nc2)cc1)N1CC[C@@H](Nc2ccc(C(F)(F)F)cn2)[C@@H](O)C1 [Compound 89, (3S,4R)-1-((4-(6-morpholinopyridin-3-yl)phenyl)sulfonyl)-4-((5-(trifluoromethyl)pyridin-2-yl)amino)piperidin-3-ol] |
